Values quoted from earlier work in patent publication US20100305045A1, “OMEGA-3 OIL CONTAINING OPHTHALMIC EMULSIONS” (Abbott Medical Optics Inc., priority 2009, published 2010).
Read-outs that look alike come from different tables or passages of the source.

Settings: HLB value as reported by the manufacturer of the commercial product, or rough average

Substance	HLB	HLB (listed as Brij 72)
Polyoxyethylene(2) nonylphenyl ether [Igepal CO-210]	4.6	
Polyoxyethylene(5) nonylphenyl ether [Igepal ® CO-520]	10.0	
Polyoxyethylene(18) tridecyl ether	14.5	
Sorbitan monooleate	4.3	
2,4,7,9-Tetramethyl-5-decyne-4,7-diol ethoxylate (15 EO/OH)	17.0	
Polyoxyethylene(12) nonylphenyl ether [Igepal ® CO-720]	14.2	
Polyoxyethylene(12) tridecyl ether	14.5	
Polyoxyethylene(150) dinonylphenyl ether [Igepal ® DM-970]	19.0	
Polyoxyethylene(4) lauryl ether [Brij ® 30]	9.7	
Sorbitan monopalmitate	6.7	
Polyoxyethylene(40) isooctylphenyl ether [Triton ® X-405]	17.9	
Polyoxyethylene(100) nonylphenyl ether [Igepal ® CO-990]	19.0	
Polyoxyethylene(12) isooctylphenyl ether [Igepal ® CA-720]	14.6	
Polyoxyethylene(2) stearyl ether [Brij ® 72]	4.9	approximately 4.9
Sorbitan monostearate	4.7	
Polyoxyethylene(2) cetyl ether [Brij ® 52]	5.3	
Polyoxyethylene(2) oleyl ether [Brij ® 92/93]	4.9	
Polyoxyethylene sorbitan tetraoleate	11.4	
Polyoxyethylene(5) isooctylphenyl ether [Igepal ® CA-520]	10.0	
Polyoxyethylene(2) isooctylphenyl ether [Igepal ® CA-210]	4.3	
Polyoxyethylene(100) stearyl ether [Brij ® 700]	18.8	
Polyoxyethylene sorbitol hexaoleate	10.2	
Polyoxyethylene(40) nonylphenyl ether [Igepal ® CO-890]	17.8	
2,4,7,9-Tetramethyl-5-decyne-4,7-diol ethoxylate	8.0	
